Data set [1] concerns 4 mycoplasma (M. gallisepticum, capricolum, M. hominis, A. laidlawii). As to the kind of experiment: organism not typed. In kind it is cell-based. Conditions: read-out: 50% inhibition of growth in liquid medium, concentration.
The test system of data set [2] is haloperidol-induced catalepsy. Put plainly: Antiparkinson activity: anticataleptic effect in rats (haloperidol catalepsy). The format is in vivo, Male Charles River albino rats. As to conditions: individual rats, 80 mg/kg i.p., one line per rat, in order rat 1 to rat 5, hydrochloride. As for the experimental part:
Male Charles River albino rats, weighing 200-250 g, were used. Catalepsy was produced by haloperidol, 5 mg/kg i.p. The animals were placed with their front paws on a horizontal bar, about 10 cm above the ground, and animals were considered cataleptic if not changing posture for at least 30 sec. Cataleptic animals were injected l.p. with one of the drugs at a dose of 40-80 mg/kg. Catalepsy was estimated again at the intervals indicated.
Male Charles River albino rats, wighing 200-250 g, were used. Catalepsy was produced by haloperidol, 5 mg/kg i.p. The animals were placed with their front paws on a horizontal bar, about 10 cm above the ground, and animals were considered cataleptic if not changing posture for at least 30 sec. Cataleptic animals were injected i.p. with one of the drugs at a dose of 40-80 mg/kg. catalepsy was estimated again at the intervals indicated.

The subject of data set [3] is stereotyped behaviour (sniffing, biting, repetitive head movement). Put plainly: Stereotyped behaviour in mice. In kind it is in vivo, Male ICR albino mice. More on the design: stereotyped behaviour score / Total Score (stereotyped behaviour) / Mean Score (stereotyped behaviour): scale not given here. The protocol:
Male ICR albino mice weighing 25-30 g were put in cages with a metal grid floor, 4 in each cage. Drugs were injected intraperitoneally and stereotyped behaviour (sniffing, biting, repetitive head movement) was evaluated every 30 min.

The next data set deals with HSV-1 (Herpes Simplex). Put plainly: Inhibition test on HSV replication. In kind it is cell-based. As to conditions: Human alphaherpesvirus 1, BSC-1 cells, 10 PFU/cell. The text has this: |INHIBITION TEST ON HSV REPLICATION |Cells |BSC-1 (Green monkey Kidney) |Virus |HSV-1 (Herpes Simplex) |Inoculum |10 PFU/cell |Medium |DMEM + 10% C.S. | Herpes | J. Levitt & Y. Becker | Virology 31, 129-134 (1967) | **% Inhibition of control infected for some time with same virus PFV with | no inhibition.

A short description of data set [4]: Toxic limit in the HSV replication test. In kind it is cell-based, Green monkey. As to conditions: monkey, bsc-1 cells; read-out: T.L. Toxic Limit (highest concentration of compound which is completely not toxic). The text has this: BSC-1 (Green monkey Kidney)
*T.L. The highest concentration of compound which is completely not toxic

Structures are written as SMILES. “And” between values parts separate entries of the source, which are not always exact repeats. Equal entries are not always repeated. Structures can show the parent of a compound that is named as a salt.

By inhibition is commonly meant the drop in the measured response relative to a control, in per cent. On to `C1CCN(NCC23CC4CC(CC(C4)C2)C3)C1` [Example 7, 1-(Adamant-1'-ylmethylamino)pyrrolidine hydrochloride], for which, in data set [1], the IC50 fell in the range of 5 to 30 mg/L. The anticataleptic effect in data set [2] is 1/4 and 0/4 (3×) and 3/4. Also, the “Total Score (stereotyped behaviour)” value in data set [3] (0-240 min, 50 mg/kg i.p., one line per mouse, in order Mouse 1 to Mouse 4, hydrochloride, 50 mg/kg) was 17 and 11 and 6 and 3. In addition, the stereotyped behaviour score in data set [3] (0 min, 50 mg/kg i.p., one line per mouse, in order Mouse 1 to Mouse 4) is 0; in data set [3] (30 min, 50 mg/kg i.p., one line per mouse, in order Mouse 1 to Mouse 4, hydrochloride, 50 mg/kg) it was 2 and 0 (3×); in data set [3] (45 min, 50 mg/kg i.p., one line per mouse, in order Mouse 1 to Mouse 4, hydrochloride, 50 mg/kg), 2 and 0 (2×) and 1; in data set [3] (60 min, 50 mg/kg i.p., one line per mouse, in order Mouse 1 to Mouse 4, hydrochloride, 50 mg/kg), 2 and 0 (3×); in data set [3] (90 min, 50 mg/kg i.p., one line per mouse, in order Mouse 1 to Mouse 4, hydrochloride, 50 mg/kg) it was 2 (2×) and 0 (2×); in data set [3] (120 min, 50 mg/kg i.p., one line per mouse, in order Mouse 1 to Mouse 4, hydrochloride, 50 mg/kg), 2 (2×) and 0 (2×). The stereotyped behaviour score in data set [3] (135 min, 50 mg/kg i.p., one line per mouse, in order Mouse 1 to Mouse 4, hydrochloride, 50 mg/kg) was 2 (2×) and 0 (2×); in data set [3] (150 min, 50 mg/kg i.p., one line per mouse, in order Mouse 1 to Mouse 4, hydrochloride, 50 mg/kg) it was 2 (2×) and 1 and 0; in data set [3] (180 min, 50 mg/kg i.p., one line per mouse, in order Mouse 1 to Mouse 4, hydrochloride, 50 mg/kg), 1 (3×) and 0; in data set [3] (210 min, 50 mg/kg i.p., one line per mouse, in order Mouse 1 to Mouse 4, hydrochloride, 50 mg/kg), 1 (2×) and 2 (2×); in data set [3] (240 min, 50 mg/kg i.p., one line per mouse, in order Mouse 1 to Mouse 4) it was 1. Moreover, the “Mean Score (stereotyped behaviour)” value in data set [3] (mean of 4 mice, 50 mg/kg i.p.) is reported as 9.25. The “found to be active” value in data set [3] (summary of the CNS tests) is given as “active”. The inhibition at 25 µg/mL with HSV-1 (Herpes Simplex) (25 μg/ml) was 72.5%. Further, the inhibition at 50 µg/mL with HSV-1 (Herpes Simplex) (50 μg/ml) stood at 92%. At 75 µg/mL the inhibition in the data set on HSV-1 (Herpes Simplex) (75 μg/ml) was 98%. The molecule also had an inhibition at 100 µg/mL with HSV-1 (Herpes Simplex) (100 μg/ml) of 99.9%. The MNTC in data set [4] is 50 µg/mL.

For the origin of these results see patent publication US4202892A, “Biocidal methyladamantyl hydrazines and pharmaceutical compositions containing them” (Teva Pharmaceutical Industries, Ltd., priority 1977, dated 1980).
